Source: US10889553B2, “Asymmetric triazole benzamide derivatives and the compositions and methods of treatment regarding the same” (NysnoBio Ireland DAC, priority 2017, dated 2021)
Like-named read-outs stand apart in the source and are kept apart here.

Columns and labels:
A427 (lung) = assay: Cancer cell proliferation assay (acid phosphatase); type: cell-based; settings: Homo sapiens, A-427; Table 6C, data of FIG. 2
Method in brief: (§1)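 Growth inhibition is expressed as a percentage of DMSO-treated control cells, using absorbance at 405 nm corrected at 620 nm after acid phosphatase conversion of p-nitrophenol phosphate. Compound exposure lasts 72 hrs at 37° C. following overnight attachment.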

Mantle Cell Mino = assay: Cancer cell proliferation assay (acid phosphatase); type: cell-based; settings: Homo sapiens, Table 6E
Method in brief: as §1

Ovarian OAW28 (OAW2B) = assay: Cancer cell proliferation assay (acid phosphatase); type: cell-based; settings: Homo sapiens, OAW-28
Method in brief: as §1

SKOV3 (ovarian) = assay: Cancer cell proliferation assay (acid phosphatase); type: cell-based; settings: Homo sapiens, SK-OV-3; Table 6D, another set of cell proliferation assay
Method in brief: as §1

HT-29 (colon) = assay: Cancer cell proliferation assay (acid phosphatase); type: cell-based; settings: Homo sapiens, Table 6C, data of FIG. 2
Method in brief: as §1

Ovarian OVCAR-3 = assay: Cancer cell proliferation assay (acid phosphatase); type: cell-based; settings: Homo sapiens, Table 6E
Method in brief: as §1

Ovarian (OAW42) = assay: Cancer cell proliferation assay (acid phosphatase); type: cell-based; settings: Homo sapiens, OAW-42
Method in brief: as §1

TOV-112D (ovarian) = assay: Cancer cell proliferation assay (acid phosphatase); type: cell-based; settings: Homo sapiens, TOV112D
Method in brief: as §1

Colo205 (colon) = assay: Cancer cell proliferation assay (acid phosphatase); type: cell-based; settings: Homo sapiens, COLO 205; Table 6C, data of FIG. 2
Method in brief: as §1

JEKO-1 (lymophoma) = assay: Cancer cell proliferation assay (acid phosphatase); type: cell-based; settings: Homo sapiens
Method in brief: as §1

Ovarian (A2780) = assay: Cancer cell proliferation assay (acid phosphatase); type: cell-based; settings: Homo sapiens
Method in brief: as §1

H292 (lung) = assay: Cancer cell proliferation assay (acid phosphatase); type: cell-based; settings: Homo sapiens, NCI-H292; Table 6C, data of FIG. 2
Method in brief: as §1

SW626 (ovarian) = assay: Cancer cell proliferation assay (acid phosphatase); type: cell-based; settings: Homo sapiens
Method in brief: as §1

Ovarian (ES-2) = assay: Cancer cell proliferation assay (acid phosphatase); type: cell-based
Method in brief: as §1

CYP2D6 = CYP2D6 (Homo sapiens, UniProt P10635); assay: CYP inhibition assay; type: in vitro ADME; settings: read-out: % Inhibition at 30 μM CYP 2D6
CDK 4/6 or other kinases = assay: Kinase panel assay (whole panel); type: biochemical; settings: 10 μM, in words
Source text: Compound 42 was also screened in a kinase panel assay.

[1] = Table 6D, another set of cell proliferation assay

Sequence of CYP2D6 (P10635 whole entry): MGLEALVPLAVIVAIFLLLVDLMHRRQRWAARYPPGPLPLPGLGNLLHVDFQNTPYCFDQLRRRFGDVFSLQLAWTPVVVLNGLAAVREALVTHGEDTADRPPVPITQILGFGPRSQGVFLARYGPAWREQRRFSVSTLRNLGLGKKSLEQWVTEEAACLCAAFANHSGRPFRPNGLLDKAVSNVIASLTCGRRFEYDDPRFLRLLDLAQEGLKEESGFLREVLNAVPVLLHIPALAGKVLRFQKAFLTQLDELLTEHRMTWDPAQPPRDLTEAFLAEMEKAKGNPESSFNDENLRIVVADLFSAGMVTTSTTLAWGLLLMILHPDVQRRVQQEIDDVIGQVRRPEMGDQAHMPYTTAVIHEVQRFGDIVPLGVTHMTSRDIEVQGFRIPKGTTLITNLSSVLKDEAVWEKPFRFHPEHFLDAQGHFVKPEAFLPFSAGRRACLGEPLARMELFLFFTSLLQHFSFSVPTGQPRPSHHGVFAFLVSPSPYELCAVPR

Question: `Cc1ccccc1C(=O)Nc1nc(NC(=O)c2ccccc2C)n(-c2ccc(OC(F)(F)F)cc2)n1` [Compound 42, N,N′-(1-(4-(trifluoromethoxy)phenyl)-1H-1,2,4-triazole-3,5-diyl)bis(2-methylbenzamide)] was tested. Which IC50 (A427 (lung)) did it give?
Answer: 0.15 µM

Question: And the IC50 (Mantle Cell Mino)?
Answer: 345 nM

Question: What about the EC50 (Ovarian OAW28 (OAW2B); [1]) of the same compound?
Answer: 114 nM

Question: What about the IC50 (Ovarian OAW28 (OAW2B); Table 6E) of the same compound?
Answer: 140 nM

Question: What about the EC50 (SKOV3 (ovarian)) of the same compound?
Answer: 376 nM

Question: What about the IC50 (HT-29 (colon)) of the same compound?
Answer: 0.2 µM

Question: What about the IC50 (Ovarian OVCAR-3) of the same compound?
Answer: 140 nM

Question: What about the EC50 (Ovarian (OAW42); [1]) of the same compound?
Answer: 166 nM

Question: And the IC50 (Ovarian (OAW42); Table 6E)?
Answer: 166 nM

Question: And the IC50 (TOV-112D (ovarian); Table 6C, data of FIG. 2, read-out: IC50 (μM) TOV-112D (ovarian))?
Answer: 0.13 µM

Question: And the EC50 (TOV-112D (ovarian); Table 6D, another set of cell proliferation assay, read-out: EC50 (nM) Ovarian (TOV0112D))?
Answer: 98 nM

Question: And the IC50 (TOV-112D (ovarian); Table 6E, read-out: Proliferation IC50 (nM) Ovarian TOV112D)?
Answer: 0.103 µM

Question: What about the IC50 (Colo205 (colon)) of the same compound?
Answer: 0.2 µM

Question: And the EC50 (JEKO-1 (lymophoma); Table 6D, another set of cell proliferation assay, read-out: EC50 (nM) Mantle cell (Jeko-1))?
Answer: 154 nM

Question: What about the IC50 (JEKO-1 (lymophoma); Table 6E, read-out: Proliferation IC50 (nM) Mantle Cell Jeko-1) of the same compound?
Answer: 154 nM

Question: What about the EC50 (Ovarian (A2780); [1]) of the same compound?
Answer: 58 nM

Question: What about the IC50 (Ovarian (A2780); Table 6E) of the same compound?
Answer: 84 nM

Question: What about the IC50 (H292 (lung)) of the same compound?
Answer: 0.16 µM

Question: And the IC50 (SW626 (ovarian); Table 6C, data of FIG. 2)?
Answer: 0.3 µM

Question: And the EC50 (SW626 (ovarian); [1])?
Answer: 334 nM

Question: What about the EC50 (Ovarian (ES-2); [1]) of the same compound?
Answer: 42 nM

Question: And the IC50 (Ovarian (ES-2); Table 6E)?
Answer: 57 nM

Question: What about the inhibition at 30 μM (CYP2D6) of the same compound?
Answer: 6.87%

Question: What about the “inhibition of CDK 4/6 or other kinases” value (CDK 4/6 or other kinases) of the same compound?
Answer: does not inhibit
